In brackets after ≈: the same amount, converted by molar mass. Like-named read-outs stand apart in the source and are kept apart here.
Columns and labels:
[1] = UV-vis spectra and molar extinction coefficient in KMOPS buffer; type: physicochemical; conditions: 0.1 mM in KMOPS buffer, pH 7.2 (3d, 6c: 10 or 20% CH3CN added)
Experimental: A 100 μM solution of each protected phenol was prepared in KMOPS buffer (20% CH3CN was used as a cosolvent for compounds 3d and 6c). The UV–vis spectra of these solutions were recorded at between 250 and 500 nm. All of the measurements were repeated in triplicate, and the absorbance values were averaged. The Beer–Lambert law, ε = A(cl)^−1, was used for the calculation of ε values at λ = 365 nm, where A is the absorbance value measured at 365 nm, c is the concentration of the sample, and l is the cuvette length (1 cm). See the Supporting Information for the spectra.

[2] = Solubility in KMOPS buffer pH 7.2; type: physicochemical
Excerpt: The photochemical and photophysical properties were investigated in a simulated physiological buffer (KMOPS, pH 7.2) and compared with the literature data for CyHQ-O-DA (Table 1). […] For this derivative, 10% CH3CN in the buffer was used to ensure complete solubilization for the photochemistry experiments. The spontaneous hydrolysis in the dark was monitored over a period of 7 days and no significant hydrolysis was detected for any of the constructs. The molar absorptivity at the wavelength used for 1PE photolysis (ε365) ranged between 4800 and 5670 M^–1 cm^–1, in line with the values of most CyHQ-based PPGs.
The photochemical behavior of constructs 4–7c was investigated in KMOPS buffer at the concentration of 0.1 mM. Under these conditions, all compounds were soluble except for the VNA analogue 6c, which, because of the lipophilicity of the vanilloid, required 20% CH3CN for full solubilization. The stability toward hydrolysis in the dark was monitored over a week, and no significant decomposition was detected for any probe. All constructs were successfully photolyzed after light exposure, as shown in the time courses of the photolysis reactions (Figure 3). MeO-CyHQ constructs 4c, 6c, and 7c were photoactivated with excellent quantum efficiency and sensitivities, and good chemical yields were obtained by monitoring the appearance of the released bioeffector over the time course of the photoreaction (Table 1). […] We believe this effect is due to the presence of the thiophene ring, a well-known photoactive group,[51] which could act as an energy sink in the excited state and quench the photochemical reaction.

[3] = One-photon excitation (1PE) photolysis with 365 nm LED, HPLC quantification; type: physicochemical; conditions: for t90% (time required to consume 90% of the starting material): 1PE 365 nm LED, lamp intensity differs per compound (Table S1)
Experimental: A 0.1 mM solution (3 mL) of each protected phenol in KMOPS buffer (10 or 20% CH3CN was used as a cosolvent for 3d and 6c) was placed in a 3 mL quartz cuvette along with a stirring bar. The solution was irradiated with stirring using a 365 nm LED lamp (Cairn OptoLED Lite). At different time intervals, 80 μL aliquots of the solution were taken out and analyzed by uHPLC (Agilent 1290 Infinity series), monitoring the AUC at 320 nm (Supporting Information, HPLC Data). An external standard calibration method of quantification was used for the calibration of the samples. The experiments were repeated in sets of three. A gradient elution with a flux rate of 0.3 mL/min using a mobile phase comprising A = 0.1% trifluoroacetic acid in water and B = acetonitrile (starting from 5% B to 100% over 10 min and re-equilibrating to 5% B before the next run) was used for the separations. A comparison of the AUC with the calibration curves of the substrates (obtained from known concentration) determined the percentages of the remaining starting materials. The percentages of the remaining starting materials were plotted versus time. The time to 90% of decomposition of the substrate (t90% values) was obtained by fitting a single exponential decay curve to the data using DeltaGraph (Red Rock Software). The following equation was used to calculate the quantum yield (Φu) of each photolysis reaction:[42],[47],[56],[57] Φu = (I σ t90%)^−1, where I is the irradiation intensity (determined by potassium ferrioxalate actinometry and measured in Einstein cm^–2 s^–1),[58] σ is the decadic extinction coefficient (1000 × ε) at 365 nm, and t90% is the time required to consume 90% of the starting material. See Supporting Information Table S1 for the I, σ, and t90% data.

[4] = Spontaneous hydrolysis in the dark; type: physicochemical; conditions: 0.1 mM in KMOPS pH 7.2, dark, 7 days
Experimental: A 0.1 mM solution of each compound was prepared in KMOPS buffer. For compounds 3d and 6c, 20% CH3CN was used as a cosolvent. The solutions were kept in the dark for 7 days, and the percentage of the starting materials was determined by periodic HPLC analysis (Supporting Information, HPLC Data).

TRPV1 channels = molecular target: T1, TRPV1 channels (Homo sapiens, UniProt Q8NER1); assay: TRPV1 activation on HEK 293 cells, Fluo-4 calcium imaging; type: cell-based
T1 construct: expressed in transfected cells
Experimental: HCT 116 cells were grown in Dulbecco’s […] medium (DMEM) supplemented with 10% fetal bovine serum (FBS), 1% nonessential amino acids (NEAA), and maintained at 37 °C and 5% CO2. HEK 293 cells stably expressing TRPV1 channels were grown as previously described.[62]
HEK 293 cells (stably expressing TRPV1 channels) were plated on a 35 mm glass-bottom dish (previously coated with poly-D-Lysine) a day before the experiment. A mixture of pluronic F-127 (Molecular Probes) and Fluo-4 AM (50 μg, Life Technologies) dissolved in dimethylsulfoxide (DMSO) (50 μL) was added to Hank’s balanced salt solution (HBSS) and sonicated for 5 min to prepare a solution containing a 0.02% final concentration of each. The solution was then loaded onto the cells growing in the 35 mm glass-bottom dish and incubated for 35–45 min in a humidified CO2 incubator (37 °C, 5% CO2). The cells were washed with HBSS (3 × 2 mL each) and subsequently maintained in HBSS during photoactivation experiments.
An Olympus FluoView FV1000MPE confocal microscope was employed to image and record cells plated onto 35 mm glass-bottom 4-well plates. A 488 nm ion laser excited the dopamine and serotonin sensors dLight 1.2 and GRAB5-HT, respectively, and Fluo-4 calcium dye. FluoView 10-ASW version 4.0 (Olympus), ImageJ-Fiji, and DeltaGraph (Red Rock Software) were used for capturing, extracting, and processing the collected data. Photoactivation was conducted with 405 nm (100% laser power, 1PE) or 720 nm (10% laser power, 24 mW, 2PE) light for MeO-CyHQ-O-DA and MeO-CyHQ-O-5HT or 740 nm (20% laser power, 15 mW light) for MeO-CyHQ-O-VNA and MeO-CyHQ-O-EG. Images were captured by using a 60× immersion lens.
Solutions of MeO-CyHQ-O-VNA or MeO-CyHQ-O-EG were added to HEK 293 cells stably expressing TRPV1 channels and loaded with Fluo-4 in a 35 mm glass-bottom dish. An area near a cell was irradiated with a single short pulse of 405 nm laser light while imaging with the 488 nm laser. Similarly, VNA and eugenol were released through 2PE using 740 nm light.

[5] = HEK 293 cells expressing TRPV1, exposure to 740 nm light, data not shown

T1 sequence (Q8NER1 whole entry): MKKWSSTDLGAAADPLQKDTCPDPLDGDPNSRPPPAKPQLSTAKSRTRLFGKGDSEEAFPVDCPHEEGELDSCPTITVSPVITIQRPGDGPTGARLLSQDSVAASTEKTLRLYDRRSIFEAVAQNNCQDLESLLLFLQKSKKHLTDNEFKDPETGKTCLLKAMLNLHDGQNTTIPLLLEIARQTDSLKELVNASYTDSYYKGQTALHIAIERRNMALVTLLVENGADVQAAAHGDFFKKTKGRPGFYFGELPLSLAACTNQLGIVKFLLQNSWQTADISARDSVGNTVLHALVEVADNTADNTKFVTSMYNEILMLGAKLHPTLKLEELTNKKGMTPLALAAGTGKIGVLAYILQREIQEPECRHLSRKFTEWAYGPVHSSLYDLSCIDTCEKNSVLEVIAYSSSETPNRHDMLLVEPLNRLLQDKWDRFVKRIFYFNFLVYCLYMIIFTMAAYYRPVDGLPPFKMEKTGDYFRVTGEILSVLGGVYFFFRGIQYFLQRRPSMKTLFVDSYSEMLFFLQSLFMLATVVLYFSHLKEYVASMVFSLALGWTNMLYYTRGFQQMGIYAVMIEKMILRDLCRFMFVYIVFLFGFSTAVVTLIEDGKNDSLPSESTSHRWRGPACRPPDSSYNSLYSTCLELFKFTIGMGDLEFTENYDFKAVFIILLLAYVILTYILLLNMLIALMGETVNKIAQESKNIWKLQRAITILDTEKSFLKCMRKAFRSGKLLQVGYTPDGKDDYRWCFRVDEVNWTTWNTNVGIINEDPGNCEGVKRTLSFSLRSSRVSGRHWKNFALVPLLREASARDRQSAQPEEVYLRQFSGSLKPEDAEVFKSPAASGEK

Row | SMILES | ε365 [1] | λmax [1] | t90% (time required to consume 90% of the starting material) [3] | τd (time constant of spontaneous hydrolysis in buffer in the dark at room temperature) [4] | solubility ([2]; pH 7.2, aqueous buffer) | other results
1 | Cc1cc(COc2cc(CCN)ccc2O)nc2c(C#N)c(O)ccc12.O=C(O)C(F)(F)F [3a, 2-(3-((8-Cyano-7-hydroxy-4-methylquinolin-2-yl)methoxy)-4-hydroxyphenyl)ethan-1-aminium 2,2,2-trifluoroacetate] | 5000 M^–1 cm^–1 | 365 nm | 28.0 s | nh (No hydrolysis (<5% detected after 7 days)) | – | solubility ([2]; aqueous buffer, KMOPS buffer, pH 7.2, read-out: solubility): > 100 µM
2 | N#Cc1c(O)ccc2c(N3CCOCC3)cc(COc3cc(CCN)ccc3O)nc12.O=C(O)C(F)(F)F [3b, 2-(3-((8-Cyano-7-hydroxy-4-morpholinoquinolin-2-yl)methoxy)-4-hydroxyphenyl)ethan-1-aminium 2,2,2-trifluoroacetate] | 4900 M^–1 cm^–1 | 358 nm | 23.2 s | nh (No hydrolysis (<5% detected after 7 days)) | > 100 µM | irradiation time to complete the 1PE photolysis reaction ([3]; 365 nm): less than 1 min
3 | Cc1ccc(-c2cc(COc3cc(CCN)ccc3O)nc3c(C#N)c(O)ccc23)cc1.O=C(O)C(F)(F)F [3d, 2-(3-((8-Cyano-7-hydroxy-4-(p-tolyl)quinolin-2-yl)methoxy)-4-hydroxyphenyl)ethan-1-aminium 2,2,2-trifluoroacetate] | 4800 M^–1 cm^–1 | 372 nm | 76.7 s | nh (No hydrolysis (<5% detected after 7 days)) | 85 µM | solubility ([2]; pH 7.2): slightly lower solubility
4 | COc1cc(-c2cc(COc3cc(CCN)ccc3O)nc3c(C#N)c(O)ccc23)cc(OC)c1OC.O=C(O)C(F)(F)F [3e, 2-(3-((8-Cyano-7-hydroxy-4-(3,4,5-trimethoxyphenyl)quinolin-2-yl)methoxy)-4-hydroxyphenyl)ethan-1-aminium 2,2,2-trifluoroacetate] | 5210 M^–1 cm^–1 | 372 nm | 188.7 s | nh (No hydrolysis (<5% detected after 7 days)) | > 100 µM | –
5 | CCCN(CCc1cccs1)[C@@H]1CCc2c(cccc2OCc2cc(OC)c3ccc(O)c(C#N)c3n2)C1 [5c, (R)-7-Hydroxy-4-methoxy-2-(((6-(propyl(2-(thiophen-2-yl)ethyl)amino)-5,6,7,8-tetrahydronaphthalen-1-yl)oxy)methyl)quinoline-8-carbonitrile] | 2300 M^–1 cm^–1 | 343 nm | 143.9 s | nh (No hydrolysis (<5% detected after 7 days)) | > 100 µM | –
6 | CCCCCCCCC(=O)NCc1ccc(OCc2cc(OC)c3ccc(O)c(C#N)c3n2)c(OC)c1 [6c, N-(4-((8-Cyano-7-hydroxy-4-methoxyquinolin-2-yl)methoxy)-3-methoxybenzyl)nonanamide] | 3375 M^–1 cm^–1 | 341 nm | 23.1 s | nh (No hydrolysis (<5% detected after 7 days)) | 77 µM (≈ 38.9 µg/mL) | Fluo-4 calcium response after photoactivation (1PE) (TRPV1 channels; HEK 293 cells expressing TRPV1, 2.5 μM, 50 ms pulse of 405 nm light): robust response; Fluo-4 calcium response after photoactivation (2PE) (TRPV1 channels; HEK 293 cells expressing TRPV1, 5 μM, 250 ms pulse of 740 nm light): robust response
7 | C=CCc1ccc(OCc2cc(OC)c3ccc(O)c(C#N)c3n2)c(OC)c1 [7c, 2-((4-Allyl-2-methoxyphenoxy)methyl)-7-hydroxy-4-methoxyquinoline-8-carbonitrile] | 7540 M^–1 cm^–1 | 351 nm | 19.5 s | nh (No hydrolysis (<5% detected after 7 days)) | > 100 µM | Fluo-4 calcium response after photoactivation (1PE) (TRPV1 channels; HEK 293 cells expressing TRPV1, 5 μM, 500 ms pulse of 405 nm light): EG was released; Fluo-4 calcium response after photoactivation (2PE) (TRPV1 channels; HEK 293 cells expressing TRPV1, 5 μM, 500 ms pulse of 740 nm light): sufficient response
8 | C=CCc1ccc(OCc2ccc3ccc(O)c(C#N)c3n2)c(OC)c1 [CyHQ-EG, reference compound] | – | – | – | – | – | Fluo-4 calcium response after photoactivation (2PE) (TRPV1 channels; [5]): did not induce any response
9 | CCCCCCCCC(=O)NCc1ccc(OCc2ccc3ccc(O)c(C#N)c3n2)c(OC)c1 [CyHQ-VNA, reference compound] | – | – | – | – | – | Fluo-4 calcium response after photoactivation (2PE) (TRPV1 channels; [5]): did not induce any response
10 | CCCCCCCCC(=O)NCc1ccc(O)c(OC)c1 [VNA, N-vanillyl-nonanoylamide, reference compound] | – | – | – | – | – | relative potency as activator of TRPV1 channels (VNA versus EG) (TRPV1 channels; inferred from concentration and pulse duration needed for release, 405 nm): more potent activator of TRPV1 channels
